In patent publication US12054498B2, “Heteroaromatic macrocyclic ether chemotherapeutic agents” (Nuvalent, Inc., priority 2020, dated 2024):

Assays:
Ba/F3 cells TPM3-TRKA = molecular target: T1, Ba/F3 cells TPM3-TRKA (Homo sapiens, UniProt P04629); experiment: Ba/F3 cell proliferation assay, TPM3-TRKA; assay type: cell-based; settings: 72 hours, CellTiter-Glo, read-out: TPM3-NTRK1-wt IC50
T1 construct: host or cells: Ba/F3 (RIKEN), retroviral pMSCV-puro; the other entry of the earlier key: TPM3 (P06753, Tropomyosin alpha-3 chain)
Summary of the method: (§1)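 IC50 values come from four-parameter logistic regression of CellTiter-Glo luminescence after 72 h exposure to 3-fold serial dilutions. Cells are Ba/F3 transformed by retroviral fusion-kinase constructs, grown without IL-3 under puromycin, plated at 1,000 per well a day before dosing.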

ROS1-G2032R = molecular target: T2, ROS1-G2032R (Homo sapiens, UniProt P08922, G2032R); experiment: Biochemical kinase assay, ROS1-G2032R kinase domain; settings: apparent inhibitory constant, Morrison equation; ATP 2 mM in substrate solution; read-out: ROS1-G2032R Ki^app
T2 construct: purchased SignalChem R14-12BG
Summary of the method: (§2)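 Kinetic read: 485 nm, 2-min intervals, 120 min, 30 °C. Substrate mix — ATP 2 mM, AQT0101 26 μM, HEPES 50 mM pH 7.5, MgCl2 10 mM. Output: Ki^app, Morrison equation.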

TRKA-wt = molecular target: T3, TRKA-wt (Homo sapiens, UniProt P04629); experiment: Biochemical kinase assay, TRKA-wt kinase domain; settings: apparent inhibitory constant, Morrison equation; ATP 2 mM in substrate solution; read-out: TRKA-wt Ki^app
T3 construct: or TRKA-wt (1 nM, BPS Bio, 40280) kinase domains in buffer; purchased BPS Bio 40280
Summary of the method: (§3)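 Continuous fluorescence read (λ=485 nm, every 2 min, 120 min, 30° C). Substrate solution held 2 mM ATP and 26 μM AQT0101 (ROS1/ALK) or AQT0104 (TRKA). Kinase solution: ROS1-G2032R 0.5 nM, ROS1-wt 0.6 nM, TRKA 1 nM, ALK double mutant 3 nM. Initial linear rates fed a Morrison-equation fit giving Ki^app.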

[1] = molecular target: T4, Ba/F3 cells EML4-ALK wt (variant 1) (Homo sapiens, UniProt Q9UM73); experiment: Ba/F3 cell proliferation assay, EML4-ALK wt (variant 1); assay type: cell-based; settings: 72 hours, CellTiter-Glo
T4 construct: echinoderm microtubule-associated protein-like 4 (EML4) gene and the ALK tyrosine kinase domain; host or cells: Ba/F3 (RIKEN), retroviral pMSCV-puro; the other entry of the earlier key: EML4 (Q9HC35, Echinoderm microtubule-associated protein-like 4)
Summary of the method: as §1

[2] = molecular target: T5, Ba/F3 cells CD74-ROS1 wild-type (wt) (Homo sapiens, UniProt P08922); experiment: Ba/F3 cell proliferation assay, CD74-ROS1 wild-type; assay type: cell-based; settings: 72 hours, CellTiter-Glo
T5 construct: fusion of the C-terminus of ROS1 with the N-terminus of various partner proteins; host or cells: Ba/F3 (RIKEN), retroviral pMSCV-puro; the other entry of the earlier key: CD74 (P04233, HLA class II histocompatibility antigen gamma chain)
Summary of the method: (§4)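 Cells were seeded 1 day, then exposed to a 3-fold compound dilution series for 72 hours. Viability was read by CellTiter-Glo luminescence; IC50 came from four-parameter logistic fitting of percent inhibition.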

[3] = molecular target: T6, Ba/F3 cells EML4-ALK L1196M/G1202R (variant 1) (Homo sapiens, UniProt Q9UM73, G1202R/L1196M); experiment: Ba/F3 cell proliferation assay, EML4-ALK L1196M/G1202R (variant 1); assay type: cell-based; settings: 72 hours, CellTiter-Glo
T6 construct: echinoderm microtubule-associated protein-like 4 (EML4) gene and the ALK tyrosine kinase domain; host or cells: Ba/F3 (RIKEN), retroviral pMSCV-puro; the other entry of the earlier key: EML4 (Q9HC35, Echinoderm microtubule-associated protein-like 4)
Summary of the method: as §1

ALK L1196M/G1202R = molecular target: T7, ALK L1196M/G1202R (Homo sapiens, UniProt Q9UM73, G1202R/L1196M); experiment: Biochemical kinase assay, ALK L1196M/G1202R kinase domain; settings: apparent inhibitory constant, Morrison equation; ATP 2 mM in substrate solution; read-out: ALK-L1196M-G1202R Ki^app
T7 construct: purchased SignalChem A19-12NG
Summary of the method: as §3

ALK-wt = molecular target: T8, ALK-wt (Homo sapiens, UniProt Q9UM73); experiment: Biochemical kinase assay, ALK-wt kinase domain; settings: apparent inhibitory constant, Morrison equation; ATP 2 mM in substrate solution; read-out: ALK-wt Ki^app
T8 construct: purchased Carna 08-518
Summary of the method: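 Compound in DMSO added first, then substrate solution (ATP 2 mM; AQT0101 or AQT0104, 26 μM; pH 7.5 HEPES, 10 mM MgCl2), then kinase solution with enzyme at 0.5–3 nM depending on construct. Kinetic read every 2 min for 120 min at 30° C; Ki^app by Morrison regression.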

ROS1-wt = molecular target: T9, ROS1-wt (Homo sapiens, UniProt P08922); experiment: Biochemical kinase assay, ROS1-wt kinase domain; settings: apparent inhibitory constant, Morrison equation; ATP 2 mM in substrate solution; read-out: ROS1-wt Ki^app
T9 construct: purchased Carna 08-163
Summary of the method: as §2

[4] = test system: TPM3-NTRK1-wt IC50 / primary target IC50 (e.g. CD74-ROS1-wt); experiment: TRKA selectivity in Ba/F3 cells (TRKA potency divided by primary target potency); assay type: cell-based; settings: for TPM3-NTRK1-wt/CD74-ROS1-G2032R selectivity ratio: TRKA potency / CD74-ROS1-G2032R potency; for TPM3-NTRK1-wt/CD74-ROS1-wt selectivity ratio: TRKA potency / CD74-ROS1-wt potency; for TPM3-NTRK1-wt/EML4-ALK-L1196M-G1202R selectivity ratio: TRKA potency / EML4-ALK-L1196M-G1202R potency; for TPM3-NTRK1-wt/EML4-ALK-wt selectivity ratio: TRKA potency / EML4-ALK-wt potency
Procedure: TRKA selectivity was calculated by dividing a compound's TRKA potency by its primary target potency (e.g. TPM3-NTRK1-wt IC50/CD74-ROS1-wt IC50). Compound selectivity can be interpreted by binning ratio values: bin A for very high selectivity, ratio >30-fold; bin B for high selectivity, ratio >10-fold; bin C for moderate selectivity, ratio ≥1; and bin D for low selectivity, ratio <1. […] (nd=not determined).

[5] = molecular target: T10, Ba/F3 cells CD74-ROS1 G2032R (Homo sapiens, UniProt P08922, G2032R); experiment: Ba/F3 cell proliferation assay, CD74-ROS1 G2032R; assay type: cell-based; settings: 72 hours, CellTiter-Glo
T10 construct: fusion of the C-terminus of ROS1 with the N-terminus of various partner proteins; host or cells: Ba/F3 (RIKEN), retroviral pMSCV-puro; the other entry of the earlier key: CD74 (P04233, HLA class II histocompatibility antigen gamma chain)
Summary of the method: as §4

T1 sequence (P04629 510-796 limits assumed): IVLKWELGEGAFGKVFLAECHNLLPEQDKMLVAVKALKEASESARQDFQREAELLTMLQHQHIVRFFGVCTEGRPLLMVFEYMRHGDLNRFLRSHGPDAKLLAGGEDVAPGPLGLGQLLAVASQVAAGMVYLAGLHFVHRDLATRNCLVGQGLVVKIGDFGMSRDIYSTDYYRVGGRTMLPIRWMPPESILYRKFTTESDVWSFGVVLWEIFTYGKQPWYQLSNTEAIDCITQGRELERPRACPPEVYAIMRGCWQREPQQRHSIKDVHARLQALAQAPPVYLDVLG
T6 sequence (Q9UM73 with tags, fused parts or gaps L1196M/G1202R): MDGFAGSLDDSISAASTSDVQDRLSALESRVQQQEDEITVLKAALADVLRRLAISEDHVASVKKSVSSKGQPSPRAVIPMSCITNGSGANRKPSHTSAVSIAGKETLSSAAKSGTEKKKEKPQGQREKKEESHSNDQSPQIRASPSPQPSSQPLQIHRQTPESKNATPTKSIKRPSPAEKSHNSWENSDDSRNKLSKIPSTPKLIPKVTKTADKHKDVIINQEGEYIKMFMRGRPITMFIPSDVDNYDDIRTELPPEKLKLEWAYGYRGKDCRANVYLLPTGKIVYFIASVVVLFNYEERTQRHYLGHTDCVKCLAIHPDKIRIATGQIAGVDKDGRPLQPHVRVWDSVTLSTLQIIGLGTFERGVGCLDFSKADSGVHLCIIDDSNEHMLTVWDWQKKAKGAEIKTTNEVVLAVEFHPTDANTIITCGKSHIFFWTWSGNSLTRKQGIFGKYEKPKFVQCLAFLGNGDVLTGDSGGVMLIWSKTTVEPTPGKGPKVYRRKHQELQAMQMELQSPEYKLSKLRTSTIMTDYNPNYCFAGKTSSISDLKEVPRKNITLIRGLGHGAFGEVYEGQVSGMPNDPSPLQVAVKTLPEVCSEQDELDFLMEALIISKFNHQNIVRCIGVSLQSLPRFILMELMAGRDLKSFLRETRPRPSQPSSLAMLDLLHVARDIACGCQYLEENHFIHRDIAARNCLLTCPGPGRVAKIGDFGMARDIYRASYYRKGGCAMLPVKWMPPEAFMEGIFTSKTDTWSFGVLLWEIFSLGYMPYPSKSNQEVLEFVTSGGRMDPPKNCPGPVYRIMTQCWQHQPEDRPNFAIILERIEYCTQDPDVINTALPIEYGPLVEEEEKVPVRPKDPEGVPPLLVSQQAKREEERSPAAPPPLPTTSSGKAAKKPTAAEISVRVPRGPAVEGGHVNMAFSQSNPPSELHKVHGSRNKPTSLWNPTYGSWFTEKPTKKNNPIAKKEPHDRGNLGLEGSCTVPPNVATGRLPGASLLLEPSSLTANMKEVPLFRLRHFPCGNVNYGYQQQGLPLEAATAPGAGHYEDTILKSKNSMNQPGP
T7 sequence (Q9UM73 1116-1392 L1196M/G1202R limits assumed): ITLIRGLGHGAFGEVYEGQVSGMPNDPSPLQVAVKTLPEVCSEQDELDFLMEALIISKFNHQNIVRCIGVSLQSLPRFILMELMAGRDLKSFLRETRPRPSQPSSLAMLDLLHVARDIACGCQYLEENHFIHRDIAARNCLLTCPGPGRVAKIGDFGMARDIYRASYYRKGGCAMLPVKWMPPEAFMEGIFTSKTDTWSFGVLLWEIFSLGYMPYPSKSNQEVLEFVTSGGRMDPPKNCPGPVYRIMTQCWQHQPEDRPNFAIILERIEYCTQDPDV
T9 sequence (P08922 1945-2222 limits assumed): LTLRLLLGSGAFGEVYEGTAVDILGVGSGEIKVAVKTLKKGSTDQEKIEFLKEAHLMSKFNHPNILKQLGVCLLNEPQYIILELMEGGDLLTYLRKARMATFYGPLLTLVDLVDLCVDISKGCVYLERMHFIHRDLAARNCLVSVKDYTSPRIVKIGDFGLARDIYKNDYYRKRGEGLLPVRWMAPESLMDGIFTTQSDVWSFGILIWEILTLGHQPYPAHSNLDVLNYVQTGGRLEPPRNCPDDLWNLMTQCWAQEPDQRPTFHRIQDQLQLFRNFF
T8 sequence (Q9UM73 1116-1392 limits assumed): as the sequence (Q9UM73 1116-1392 L1196M/G1202R limits assumed) above, with M81L, R87G counted along it
T3 sequence (P04629 510-781 limits assumed): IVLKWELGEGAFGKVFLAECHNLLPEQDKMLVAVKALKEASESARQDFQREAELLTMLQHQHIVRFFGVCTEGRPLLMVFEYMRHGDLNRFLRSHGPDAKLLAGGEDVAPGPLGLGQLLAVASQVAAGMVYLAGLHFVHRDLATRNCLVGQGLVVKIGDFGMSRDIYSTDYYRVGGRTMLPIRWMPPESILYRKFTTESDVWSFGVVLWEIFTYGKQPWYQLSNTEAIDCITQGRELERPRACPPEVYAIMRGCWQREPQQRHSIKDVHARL
T10 sequence (P08922 1883-2347 G2032R limits assumed): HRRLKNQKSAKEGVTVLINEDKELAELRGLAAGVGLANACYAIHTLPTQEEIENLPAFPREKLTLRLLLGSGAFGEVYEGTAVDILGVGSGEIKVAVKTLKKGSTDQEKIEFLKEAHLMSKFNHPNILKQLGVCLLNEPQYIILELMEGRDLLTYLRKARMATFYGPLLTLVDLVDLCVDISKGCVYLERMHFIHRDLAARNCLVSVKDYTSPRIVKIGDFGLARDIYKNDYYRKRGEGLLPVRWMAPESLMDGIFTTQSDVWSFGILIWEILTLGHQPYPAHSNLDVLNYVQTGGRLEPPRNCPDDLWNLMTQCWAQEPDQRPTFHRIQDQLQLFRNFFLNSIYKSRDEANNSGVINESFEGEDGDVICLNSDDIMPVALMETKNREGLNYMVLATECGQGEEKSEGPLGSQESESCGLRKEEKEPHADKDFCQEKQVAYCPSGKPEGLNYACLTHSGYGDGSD
T4 sequence (Q9UM73 with tags, fused parts or gaps): as the sequence (Q9UM73 with tags, fused parts or gaps L1196M/G1202R) above, with M635L, R641G counted along it
T5 sequence (P08922 1883-2347 limits assumed): as the sequence (P08922 1883-2347 G2032R limits assumed) above, with R150G counted along it
T2 sequence (P08922 1945-2222 G2032R limits assumed): as the sequence (P08922 1945-2222 limits assumed) above, with G88R counted along it

SMILES	IC50 (Ba/F3 cells TPM3-TRKA) [nM]	Ki (ROS1-G2032R) [nM]	Ki (TRKA-wt) [nM]	IC50 [1] [nM]	IC50 [2] [nM]	IC50 [3] [nM]	Ki (ALK L1196M/G1202R) [nM]	Ki (ALK-wt) [nM]	Ki (ROS1-wt) [nM]	IC50 [5] [nM]	TPM3-NTRK1-wt/CD74-ROS1-G2032R selectivity ratio [4]	TPM3-NTRK1-wt/CD74-ROS1-wt selectivity ratio [4]	TPM3-NTRK1-wt/EML4-ALK-L1196M-G1202R selectivity ratio [4]	TPM3-NTRK1-wt/EML4-ALK-wt selectivity ratio [4]
CCn1ncc2c1-c1cnc(N)c(c1)O[C@H](C)c1cc(F)ccc1-c1cc(Cl)nn1C2 [Example 16, (19R)-10-chloro-3-ethyl-16-fluoro-19-methyl-20-oxa-3,4,8,9,23-pentaazapentacyclo[19.3.1.0^2,^6.0^8,^12.0^13,^18]pentacosa-1(24),2(6),4,9,11,13,15,17,21(25),22-decaen-22-amine]	50 to 500	< 50	< 50	0.1 to 50	0.1 to 50	0.1 to 50	< 50	< 50	< 50	0.1 to 50	A (bin A for very high selectivity, ratio >30-fold)	A (bin A for very high selectivity, ratio >30-fold)	C (bin C for moderate selectivity, ratio ≥1)	B (bin B for high selectivity, ratio >10-fold)
C[C@H]1Oc2cc(cnc2N)-c2c(cnn2CC2CC2)Cc2nn(C)nc2-c2ccc(F)cc21 [Example 69, (19R)-3-(cyclopropylmethyl)-16-fluoro-10,19-dimethyl-20-oxa-3,4,9,10,11,23-hexaazapentacyclo[19.3.1.0^2,^6.0^8,^12.0^13,^18]pentacosa-1(24),2(6),4,8,11,13,15,17,21(25),22-decaen-22-amine]	> 500	< 50	> 500	0.1 to 50	0.1 to 50	0.1 to 50	< 50	< 50	< 50	0.1 to 50	A (bin A for very high selectivity, ratio >30-fold)	A (bin A for very high selectivity, ratio >30-fold)	A (bin A for very high selectivity, ratio >30-fold)	A (bin A for very high selectivity, ratio >30-fold)
CCn1ncc2c1-c1cnc(N)c(c1)O[C@H](C)c1cc(F)ccc1-c1cc(F)nn1C2 [Example 15, (19R)-3-ethyl-10,16-difluoro-19-methyl-20-oxa-3,4,8,9,23-pentaazapentacyclo[19.3.1.0^2,^6.0^8,^12.0^13,^18]pentacosa-1(24),2(6),4,9,11,13,15,17,21(25),22-decaen-22-amine]	50 to 500	< 50	50 to 500	0.1 to 50	0.1 to 50	0.1 to 50	< 50	< 50	< 50	0.1 to 50	A (bin A for very high selectivity, ratio >30-fold)	A (bin A for very high selectivity, ratio >30-fold)	C (bin C for moderate selectivity, ratio ≥1)	A (bin A for very high selectivity, ratio >30-fold)
CCn1ncc2c1-c1cnc(N)c(c1)O[C@H](C)c1cc(F)ccc1-c1cc(C)nn1C2 [Example 4, (19R)-3-ethyl-16-fluoro-10,19-dimethyl-20-oxa-3,4,8,9,23-pentaazapentacyclo[19.3.1.0^2,^6.0^8,^12.0^13,^18]pentacosa-1(24),2(6),4,9,11,13,15,1 7,21 (25),22-decaen-22-amine]	50 to 500	< 50	50 to 500	0.1 to 50	0.1 to 50	50 to 500	< 50	< 50	< 50	0.1 to 50	A (bin A for very high selectivity, ratio >30-fold)	A (bin A for very high selectivity, ratio >30-fold)	C (bin C for moderate selectivity, ratio ≥1)	B (bin B for high selectivity, ratio >10-fold)

More lines, main results first:

IC50 (Ba/F3 cells TPM3-TRKA) [nM]	Ki (ROS1-G2032R) [nM]	Ki (TRKA-wt) [nM]	IC50 [1] [nM]	IC50 [2] [nM]	IC50 [3] [nM]	Ki (ALK L1196M/G1202R) [nM]	Ki (ALK-wt) [nM]	Ki (ROS1-wt) [nM]	IC50 [5] [nM]	SMILES	TPM3-NTRK1-wt/CD74-ROS1-G2032R selectivity ratio [4]	TPM3-NTRK1-wt/CD74-ROS1-wt selectivity ratio [4]	TPM3-NTRK1-wt/EML4-ALK-L1196M-G1202R selectivity ratio [4]	TPM3-NTRK1-wt/EML4-ALK-wt selectivity ratio [4]
> 500	< 50	> 500	0.1 to 50	0.1 to 50	50 to 500	< 50	< 50	< 50	0.1 to 50	Cc1nn(CC2CC2)c2c1Cc1nn(C)nc1-c1c(F)cc(F)cc1[C@@H](C)Oc1cc-2cnc1N [Example 82, (19R)-3-(cyclopropylmethyl)-14,16-difluoro-5,10,19-trimethyl-20-oxa3,4,9,10,11,23-hexaazapentacyclo[19.3.1.0^2,^6.0^8,^12.0^13,^18]pentacosa 1(24),2(6),4,8,11,13,15,17,21(25),22-decaen-22-amine]	A (bin A for very high selectivity, ratio >30-fold)	A (bin A for very high selectivity, ratio >30-fold)	A (bin A for very high selectivity, ratio >30-fold)	A (bin A for very high selectivity, ratio >30-fold)
> 500	< 50	> 500	0.1 to 50	0.1 to 50	50 to 500	< 50	< 50	< 50	0.1 to 50	C[C@H]1Oc2cc(cnc2N)-c2c(cnn2CC2CC2)Cn2ncnc2-c2ccc(F)cc21 [Example 70, (19R)-3-(cyclopropylmethyl)-16-fluoro-19-methyl-20-oxa-3,4,8,9,11,23-hexaazapentacyclo[19.3.1.0^2,^6.0^8,^12.0^13,^18]pentacosa-1(24),2(6),4,9,11,13,15,17,21(25),22-decaen-22-amine]	A (bin A for very high selectivity, ratio >30-fold)	A (bin A for very high selectivity, ratio >30-fold)	A (bin A for very high selectivity, ratio >30-fold)	A (bin A for very high selectivity, ratio >30-fold)
